Test results: US20040023919A1, “Blood lipid ameliorant composition” (SANKYO COMPANY, LIMITED, priority 2000, published 2004)

Legend:
Type in all cases: in vivo, Beagle dogs
GOT = GOT levels in dogs after oral administration (Table 9); conditions: relative ratio against averaged pre-dosing level (100), oral once daily, atorvastatin 2 mg/kg, pantethine 300 mg/kg, mean of 5 animals
Source text: Atorvastatin was synthesized at Chemtech Labo. Inc., and riboflavin butyrate, d-α-tocopherol acetate, ascorbic acid, pantethine and taurine were purchased from Mitsubishi-Tokyo Pharmaceutical Inc., Eisai Co., Ltd., NIPPON ROCHE K.K., Nacalai Tesque, Inc. and Dai-ich Pharmaceutical Co., Ltd., respectively.
(§1) Beagle dogs aged 5 months were purchased from Covance Research Products Inc. and used after 1 month of quarantine and acclimatisation breeding.
(§2) The required amounts of atorvastatin or each component of the combination drug calculated from the body weight of each dog were weighed and filled in a gelatin capsule (½ ounce) purchased from TORPAC Inc. Capsules filled with atorvastatin were stocked in a refrigerator and those filled with combination drugs stocked at room temperature until use.
(§3) Atorvastatin or combination drug capsules were forcibly orally administered to each of the test animals once daily between 9:00 and 12:30. Animals were fasted for 2 or 3 hr prior to administration of the capsules.
(§4) The administration period was 11 successive days.
Blood (10 mL) was collected from the superficial radial vein 2 or 1 weeks prior to administration and 4, 8, and 12 days after administration was started. Animals were fasted for approximately 18 hr prior to blood collection. Collected blood was placed in a test tube, left at room temperature for 0.5-1 hr, then centrifuged (3,000 rpm for 10 min). […]
(§5) All these levels were determined using a fluorometer (Hitachi, Ltd., F3000), a full automatic analyzer (Monarch, Instrumentation Laboratory), and an automatic analyzer (7170, Hitachi, Ltd.).
Total cholesterol levels and so forth in the blood collected from dogs treated with either atorvastatin alone or a combination drug consisting of atorvastatin plus one of riboflavin butyrate, d-α-tocopherol acetate, ascorbic acid, pantethine and taurine were determined. All these values were converted to their relative ratios against their averaged pre-dosing levels (100) determined 2 and 1 weeks prior to drug administration. […]

Blood FFA = Blood FFA levels in dogs after oral administration (Table 8); conditions: relative ratio against averaged pre-dosing level (100), oral once daily, atorvastatin 2 mg/kg, AA 500 mg/kg, mean of 5 animals
[1] = tested on: total cholesterol in the blood; experiment: Blood total cholesterol levels in dogs after oral administration for 11 days (CEH-COD-POD method); conditions: relative ratio against averaged pre-dosing level (100), oral once daily, mean of 5 animals
Source text: (§6) Atorvastatin was synthesized at Chemtech Labo.
as §1, §2, §3, §4
(§7) Blood (10 mL) was collected from the superficial radial vein 2 or 1 weeks prior to administration and 4, 8, and 12 days after administration was started. Animals were fasted for approximately 18 hr prior to blood collection. Collected blood was placed in a test tube, left at room temperature for 0.5-1 hr, then centrifuged (3,000 rpm for 10 min). The obtained serum was used for assays of blood levels of total cholesterol, lipid peroxides and triglycerides according to CEH-COD-POD (Cholesterol ester hydrolase-Cholesteroloxidase-Peroxidase) methods, Yagi's methods and GK-GPO-POD (Glycerokinase-Glycerolphosphateoxidase-Peroxidase) methods respectively. (For assay method, see: Kanai's Manual of Clinical Laboratory Medicine; 31st Edition (September 1998), Kanehara & Co., Ltd.).
as §5
(§8) All these values were converted to their relative ratios against their averaged pre-dosing levels (100) determined 2 and 1 weeks prior to drug administration. The averaged value in each group was obtained from 5 animals per group.

[2] = tested on: lipid peroxides in the blood; experiment: Blood lipid peroxide levels in dogs after oral administration for 11 days (Yagi's method); conditions: relative ratio against averaged pre-dosing level (100), oral once daily, atorvastatin 2 mg/kg, mean of 5 animals
Source text: as §6, §1, §2, §3, §4
as §7, with “respectively.” for “respectively. (For assay method, see: Kanai's Manual of Clinical Laboratory Medicine; 31st Edition (September 1998), Kanehara & Co., Ltd.).”
as §8

[3] = tested on: triglycerides in the blood; experiment: Blood triglyceride levels in dogs after oral administration for 11 days (GK-GPO-POD method); conditions: relative ratio against averaged pre-dosing level (100), oral once daily, statin 2 mg/kg, taurine 1000 mg/kg, mean of 5 animals
Source text: as §6, §1, §2, §3, §4, §7, §5, §8

[4] = atorvastatin 2 mg/kg, RFVb 200 mg/kg
[5] = atorvastatin 2 mg/kg, Tocoph 300 mg/kg
[6] = statin 2 mg/kg, taurine 1000 mg/kg

| SMILES | Blood FFA Levels after administration, 4 days (Blood FFA) | Blood FFA Levels after administration, 8 days (Blood FFA) | Blood FFA Levels after administration, 12 days (Blood FFA) | Blood Total Cholesterol Levels after administration, 4 days [1, 4] | Blood Total Cholesterol Levels after administration, 4 days [1, 5] | Blood Total Cholesterol Levels after administration, 8 days [1, 4] | Blood Total Cholesterol Levels after administration, 8 days [1, 5] | Blood Total Cholesterol Levels after administration, 12 days [1, 4] | Blood Total Cholesterol Levels after administration, 12 days [1, 5] | Blood Lipid Peroxide Levels after administration, 4 days ([2]; Tocoph 300 mg/kg) | Blood Lipid Peroxide Levels after administration, 8 days ([2]; Tocoph 300 mg/kg) | Blood Lipid Peroxide Levels after administration, 12 days ([2]; Tocoph 300 mg/kg) | other results |
| --- | --- | --- | --- | --- | --- | --- | --- | --- | --- | --- | --- | --- | --- |
| CC(C)c1c(C(=O)Nc2ccccc2)c(-c2ccccc2)c(-c2ccc(F)cc2)n1CC[C@@H](O)C[C@@H](O)CC(=O)O (relative stereo) [Atorvastatin alone, [R-(R*,R*)]-2-(4-fluorophenyl)-β,δ-dihydroxy-5-(1-methylethyl)-3-phenyl-4-[phenylamino]carbonyl]-1H-pyrrole-1-heptanoic acid] | 102.9 | 95.5 | 90.9 | 102.9 | 102.9 | 95.5 | 95.5 | 90.9 | 90.9 | 104.5 | 84.4 | 80.9 | GOT Levels after administration, 4 days (GOT; 4 days): 102.9; GOT Levels after administration, 8 days (GOT; 8 days): 95.5; GOT Levels after administration, 12 days (GOT; 12 days): 90.9; Blood Lipid Peroxide Levels after administration, 4 days ([2]; pantethine 300 mg/kg): 104.5; Blood Lipid Peroxide Levels after administration, 8 days ([2]; pantethine 300 mg/kg): 84.4; Blood Lipid Peroxide Levels after administration, 12 days ([2]; pantethine 300 mg/kg): 80.9 |
| O=C1O[C@H]([C@@H](O)CO)C(O)=C1O [AA alone, ascorbic acid] | 95.9 | 96.7 | 98.9 | – | – | – | – | – | – | – | – | – | – |
| CCCC(=O)OC[C@@H](OC(=O)CCC)[C@@H](OC(=O)CCC)[C@H](Cn1c2nc(=O)[nH]c(=O)c-2nc2cc(C)c(C)cc21)OC(=O)CCC [RFVb alone, riboflavin butyrate] | – | – | – | 99.5 | – | 99.0 | – | 97.2 | – | – | – | – | – |
| CCC(C)(C)C(=O)O[C@H]1C[C@@H](C)C=C2C=C[C@H](C)[C@H](CC[C@@H]3C[C@@H](O)CC(=O)O3)[C@H]21 [Simvastatin alone] | – | – | – | – | – | – | – | – | – | – | – | – | Blood Total Cholesterol Levels after administration, 4 days [1, 6]: 102.9; Blood Total Cholesterol Levels after administration, 8 days [1, 6]: 95.5; Blood Total Cholesterol Levels after administration, 12 days [1, 6]: 90.9; Blood Triglyceride Levels after administration, 4 days ([3]; 4 days): 87.1; Blood Triglyceride Levels after administration, 8 days ([3]; 8 days): 86.7; Blood Triglyceride Levels after administration, 12 days ([3]; 12 days): 74.1 |
| CC(=O)Oc1c(C)c(C)c2c(c1C)CC[C@@](C)(CCC[C@H](C)CCC[C@H](C)CCCC(C)C)O2 [Tocoph alone, d-α-tocopherol acetate] | – | – | – | – | 97.7 | – | 95.1 | – | 97.5 | 106.3 | 119.0 | 75.9 | – |
